From US20250057859A1, “CANNABICHROMENEQUINONE AND ANALOGUES THEREOF, AND METHOD OF USING COMPOSITIONS THEREOF AS ANTI-INFLAMMATORY AGENTS” (Juva Life, Inc., priority 2021, published 2025) come the findings set out here.

Each structure is given as a SMILES string. Like-named read-outs stand apart in the source and are kept apart here.

The subject of one test is IL-10. Nature of the test: IL-10 secretion assay in human PBMCs (PHA-M-stimulated, ELISA). The format is cell-based. As to conditions: PBMC, PHA-M 10 ug/mL 40 hr, read-out: IL10 inhibitory activity IC50. How it is done:
Fetal bovine serum (FBS) was obtained from ThermoFisher (Cat #16000044). • Other reagents: 96well TC plates were obtained from ThermoFisher (Cat #07-2000-90).
Cryopreserved PBMCs were thawed in a water bath and transferred to 50 mL polypropylene tubes. The cells were washed two times with 25 mL of RPMI medium supplemented with 5% of regular FBS and re-suspended at a density of 1.5×10^6 cells/mL. The cells were plated into 96 well TC plate (100 uL/well). Serially diluted compound was added to the cells in duplicate wells for each concentration. Control wells received DMSO only (0.3% final). The cells were pre-incubated with compound for 2 hr. After pre-incubation, the cells were stimulated by PHA-M (10 ug/mL) for 40 hr. Control samples with and without PHA-M in the absence of compound were assembled in each test plate. IL-10 was detected in media supernatants by using a sandwich anti-IL10 ELISA kit (BD Biosciences) according to protocol provided by the manufacturer. ELISA readout (optical density at 450 nm) is commensurable with the amount of IL-10 produced by the cells. Assay window was determined in each experiment by comparing average OD450 values in stimulated and un-stimulated samples in the absence of compound. ELISA calibration was performed in each detection plate using serially diluted recombinant human IL-10 standard to ensure that OD450 values for all test samples were within linear range of detection.%-Inhibition by compound was calculated using following equation:
[formula] • where OD450100% is optical density in control samples stimulated with PHA-M without compound, OD4500% is optical density in unstimulated control samples, and OD450compound is optical density in a sample stimulated with PHA-M in the presence of compound. The calculated %-Inh values were plotted against compound concentration. To determine IC50 values, dose-response curves were fitted by a 4-parameter sigmoid inhibition model using XLFit® software (IDBS).
(An ELISA detects its analyte on a solid surface through an enzyme-linked reagent.)

Test [1] has as its target T1, Recombinant human ALOX15 (Arachidonate 15-Lipoxygenase) (Homo sapiens, UniProt P16050).
T1 construct: full length encompassing amino acids 2-662(end); FLAG (N); purchased BPS Biosciences 50220
T1 sequence (P16050 2-662): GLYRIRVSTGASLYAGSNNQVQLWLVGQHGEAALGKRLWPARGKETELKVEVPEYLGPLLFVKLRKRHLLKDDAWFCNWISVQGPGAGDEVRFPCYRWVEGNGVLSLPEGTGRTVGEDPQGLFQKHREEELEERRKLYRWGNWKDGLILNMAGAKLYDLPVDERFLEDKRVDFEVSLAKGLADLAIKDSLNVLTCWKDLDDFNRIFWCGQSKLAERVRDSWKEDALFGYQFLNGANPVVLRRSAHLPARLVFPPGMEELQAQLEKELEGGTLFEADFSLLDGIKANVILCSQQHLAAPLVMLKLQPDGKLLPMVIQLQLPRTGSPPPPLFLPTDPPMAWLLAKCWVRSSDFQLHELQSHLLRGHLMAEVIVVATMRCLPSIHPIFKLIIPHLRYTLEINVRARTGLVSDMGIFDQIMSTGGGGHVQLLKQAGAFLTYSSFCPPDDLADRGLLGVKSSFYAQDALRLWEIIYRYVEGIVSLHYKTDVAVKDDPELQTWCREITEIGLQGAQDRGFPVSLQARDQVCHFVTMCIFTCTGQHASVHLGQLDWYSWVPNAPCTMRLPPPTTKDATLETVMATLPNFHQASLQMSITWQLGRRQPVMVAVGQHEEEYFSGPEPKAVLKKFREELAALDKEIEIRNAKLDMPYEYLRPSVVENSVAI
Nature of the test: Biochemical LOX-15 assay. The source says: • Recombinant human ALOX15 (Arachidonate 15-Lipoxygenase), full length encompassing amino acids 2-662(end). In this construct the N-terminal end of ALOX15 is fused with a FLAG tag was obtained from BPS Biosciences (Cat #50220). • Dihydrorhodamine 123, DHR, was obtained from Sigma (Cat #1054) • Arachidonic acid, AA, was obtained from Sigma (Cat #A3611) • Other reagents: black 384 well assay plates were obtained from Corning (Cat #3820). • Equipment: Synergy Neo2 Multi-mode plate reader (Biotek), Labcyte 550 acoustic dispenser (Labcyte), Biomek FX robotic dispenser (Beckman Coulter), Sorvall Legend RT centrifuge (Kendro).
The LOX-15 assay was performed in assay buffer comprising: 50 mM Tris (pH 7.5),), 5 uM DHR, 50 uM AA, and 50 nM recombinant enzyme. Serially diluted compounds were prepared in DMSO in Echo qualified 384 well plates. An assay buffer was then prepared without supplemented 10 uM DHRA. 10 uL of the supplemented buffer was dispensed into control (no enzyme) wells in the black 384well assay plate. Next, a 2× enzyme solution was prepared, comprising 100 nM LOX-15 enzyme in the supplemented assay buffer. 10 uL of the 2× enzyme solution was then dispensed into test wells in the black 384well assay plate. Serially diluted compounds were added to the assay plate by acoustic dispensing (Labcyte 550). Control wells received DMSO only.
Next, the 2× substrate was prepared to comprise 100 uM arachidonic acid in the assay buffer. 10 uL of the 2× substrate was then added to all wells in the assay plate. The plate was incubated for 3 hours. The plate was read on Synergy Neo2 in fluorescence mode: excitation 485 nm, emission 530 nm. % inhibition and the resulting IC50 was calculated for the compound using the following equation:
[formula] • where RFU100% is fluorescence in control samples without compound, RFU0% is fluorescence in control samples without LOX-15, and RFUcompound fluorescence in a sample with compound.
The calculated %-Inh values were plotted against compound concentration. To determine IC50 values, dose-response curves were fitted by a 4-parameter sigmoid inhibition model using XLFit® software (IDBS).

Setting [2] is: 50 nM recombinant enzyme, 50 uM AA, read-out: 15-Lox inhibitory activity IC50.

As a reminder, the IC50 is the midpoint of a concentration-inhibition curve. Turning to `CCCCCC1=CC(=O)C2=C(OC(C)(CCC=C(C)C)C=C2)C1=O` (stereo not shown) [Formula II], the results for the IC50 (in the test on IL-10; in test [1] (setting [2])) were 0.78 µM and 5.4 µM, respectively.
For `CCCCCc1cc(OC)c2c(c1OC)OC(C)(CCC=C(C)C)C=C2` (stereo not shown) [Formula XXIV] the same measures were over 10 µM and over 10 µM.
`CCCCCc1cc(OC(C)=O)c2c(c1OC(C)=O)OC(C)(CCC=C(C)C)C=C2` (stereo not shown) [Formula XXIII]: the IC50 in the test on IL-10 is 0.92 µM; in test [1] (setting [2]), over 10 µM.
On to `CCCCCC1=C(NCCC)C(=O)C2=C(OC(C)(CCC=C(C)C)C=C2)C1=O` (stereo not shown) [Formula XXV], for which the IC50 in the test with IL-10 is over 10 µM; in test [1] (setting [2]) it was 5.7 µM.
As for `CC(C)=CCCC1(C)C=CC2=C(O1)C(=O)c1ccccc1C2=O` (stereo not shown) [Formula XXVII], the half-inhibitory concentration (IC50) (in the test with IL-10; in test [1]) was over 10 µM throughout.
Regarding `CCCCCc1cc(O)c2c(c1O)OC(C)(CCC=C(C)C)C=C2` (stereo not shown) [Formula XXII], the 50% inhibitory concentration (IC50) worked out at 0.92 µM with IL-10 and 1.22 µM in test [1] (setting [2]).
In the same order, the values of `CCCCCC1=CC(=O)C2=C(O[C@](C)(CCC=C(C)C)C=C2)C1=O` [Formula XXVI] are 0.38 µM and 1.93 µM.
Regarding `CCCCCC1=C(NCC)C(=O)C2=C(OC(C)(CCC=C(C)C)C=C2)C1=O` (stereo not shown) [Formula XXVIII], the IC50 (in the test with IL-10; in test [1] (setting [2])) was over 10 µM throughout.
